Data as given in ChEMBL document CHEMBL3856224, “Novel series of tacrine-tianeptine hybrids: Synthesis, cholinesterase inhibitory activity, S100B secretion and a molecular modeling approach” (Eur J Med Chem, 2016).
pIC50: −log10 of the molar value. Activity calls are given as the source filed them. The calls are words filed in the database; no cut-off is given here.

Tests used:
[1] = biological target: T1, Acetylcholinesterase (Rattus norvegicus, UniProt P37136); set-up: species or system Wistar
T1 sequence (P37136 whole entry): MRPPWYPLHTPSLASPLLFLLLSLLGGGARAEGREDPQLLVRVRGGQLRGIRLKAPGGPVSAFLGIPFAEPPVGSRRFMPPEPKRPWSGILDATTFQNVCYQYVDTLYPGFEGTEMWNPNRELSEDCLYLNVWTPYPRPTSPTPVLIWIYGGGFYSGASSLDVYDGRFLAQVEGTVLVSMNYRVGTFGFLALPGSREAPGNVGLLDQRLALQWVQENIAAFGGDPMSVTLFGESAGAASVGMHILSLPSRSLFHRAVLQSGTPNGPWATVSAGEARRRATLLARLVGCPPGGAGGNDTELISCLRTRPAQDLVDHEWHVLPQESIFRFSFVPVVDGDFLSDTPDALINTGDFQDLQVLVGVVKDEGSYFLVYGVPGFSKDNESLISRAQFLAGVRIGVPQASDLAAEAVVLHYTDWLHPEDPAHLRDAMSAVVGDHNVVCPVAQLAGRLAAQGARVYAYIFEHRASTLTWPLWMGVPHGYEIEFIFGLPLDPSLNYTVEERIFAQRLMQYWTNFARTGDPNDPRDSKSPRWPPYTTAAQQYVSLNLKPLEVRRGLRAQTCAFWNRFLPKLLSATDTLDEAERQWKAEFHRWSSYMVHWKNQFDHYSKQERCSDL
Description: Inhibition of Wistar rat brain AChE using acetylthiochloline iodide as substrate after 30 mins by Ellman's method

[2] = biological target: Cholinesterase (Homo sapiens, UniProt P06276)
Description: Inhibition of human plasma BuChE using S-butyrylthiocholine iodide as substrate after 30 mins by Ellman's method

[3] = system: Hippocampus; assay: Reduction of S100B secretion in Wistar rat hippocampus at 0.03 to 0.3 uM after 1 hr by ELISA; assay type: functional
[4] = species on record: Rattus norvegicus; assay: Toxicity in Wistar rat hippocampus assessed as LDH release at 0.1 uM relative to control; assay type: organism-based; conditions: in vivo
[5] = species on record: Rattus norvegicus; assay: Toxicity in Wistar rat hippocampus assessed as LDH release at 0.03 uM relative to control; assay type: organism-based; conditions: in vivo
[6] = species on record: Rattus norvegicus; assay: Toxicity in Wistar rat hippocampus assessed as LDH release at 0.3 uM relative to control; assay type: organism-based; conditions: in vivo

Sequence of Cholinesterase (P06276 whole entry): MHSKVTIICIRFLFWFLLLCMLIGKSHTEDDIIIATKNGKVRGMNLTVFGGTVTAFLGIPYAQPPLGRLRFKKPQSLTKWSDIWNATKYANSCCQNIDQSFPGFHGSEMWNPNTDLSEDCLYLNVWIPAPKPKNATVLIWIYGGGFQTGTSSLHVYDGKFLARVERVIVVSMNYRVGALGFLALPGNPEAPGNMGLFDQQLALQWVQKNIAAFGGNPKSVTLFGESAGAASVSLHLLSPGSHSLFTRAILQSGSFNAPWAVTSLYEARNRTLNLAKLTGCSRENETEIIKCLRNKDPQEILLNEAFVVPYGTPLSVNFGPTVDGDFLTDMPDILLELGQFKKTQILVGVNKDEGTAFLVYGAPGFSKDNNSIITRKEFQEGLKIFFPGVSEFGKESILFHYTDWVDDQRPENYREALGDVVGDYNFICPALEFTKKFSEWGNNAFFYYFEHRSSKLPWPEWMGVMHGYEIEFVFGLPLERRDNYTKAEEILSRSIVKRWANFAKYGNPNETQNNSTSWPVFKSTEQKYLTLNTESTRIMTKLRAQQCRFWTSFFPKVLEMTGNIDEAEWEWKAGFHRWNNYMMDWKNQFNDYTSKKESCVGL

Row | SMILES | pIC50 [1] | pIC50 [2] | Activity [3] | Activity [4] | Activity [5] | Activity [6]
1 | CN1c2ccccc2C(NCCCCCCC(=O)NCCCCCCNc2c3c(nc4cc(Cl)ccc24)CCCC3)c2ccc(Cl)cc2S1(=O)=O (stereo unspecified) | 7.41 | 7.49 |  |  |  | 
2 | CN1c2ccccc2C(NCCCCCCC(=O)NCCNc2c3c(nc4ccccc24)CCCC3)c2ccc(Cl)cc2S1(=O)=O (stereo unspecified) | 7.09 | 7.65 |  |  |  | 
3 | CN1c2ccccc2C(NCCCCCCC(=O)NCCCCCNc2c3c(nc4cc(Cl)ccc24)CCCC3)c2ccc(Cl)cc2S1(=O)=O (stereo unspecified) | 7.55 | 7.52 |  |  |  | 
4 | CN1c2ccccc2C(NCCCCCCC(=O)NCCCCCCNc2c3c(nc4ccccc24)CCCC3)c2ccc(Cl)cc2S1(=O)=O (stereo unspecified) | 6.94 | 8.42 |  |  |  | 
5 | CN1c2ccccc2C(NCCCCCCC(=O)NCCCCNc2c3c(nc4ccccc24)CCCC3)c2ccc(Cl)cc2S1(=O)=O (stereo unspecified) | 6.81 | 8.44 | Active | 74.9% | 72.7% | 
6 | CN1c2ccccc2C(NCCCCCCC(=O)NCCCCCCCCNc2c3c(nc4ccccc24)CCCC3)c2ccc(Cl)cc2S1(=O)=O (stereo unspecified) | 7.06 | 8.39 |  |  |  | 
7 | c1ccc2c(NCCCCCCCNc3c4c(nc5ccccc35)CCCC4)c3c(nc2c1)CCCC3 |  | 7.42 |  |  |  | 
8 | CN1c2ccccc2C(NCCCCCCC(=O)NCCCCCNc2c3c(nc4ccccc24)CCCC3)c2ccc(Cl)cc2S1(=O)=O (stereo unspecified) | 6.97 | 8.16 | Active |  | 67.4% | 
9 | CN1c2ccccc2C(NCCCCCCC(=O)NCCNc2c3c(nc4cc(Cl)ccc24)CCCC3)c2ccc(Cl)cc2S1(=O)=O (stereo unspecified) | 8.10 | 7.32 |  |  |  | 
10 | CN1c2ccccc2C(NCCCCCCC(=O)NCCCCCCCCNc2c3c(nc4cc(Cl)ccc24)CCCC3)c2ccc(Cl)cc2S1(=O)=O (stereo unspecified) | 6.34 | 6.34 |  |  |  | 
11 | CN1c2ccccc2C(NCCCCCCC(=O)NCCCNc2c3c(nc4ccccc24)CCCC3)c2ccc(Cl)cc2S1(=O)=O (stereo unspecified) | 7.28 | 7.94 |  |  |  | 
12 | CN1c2ccccc2C(NCCCCCCC(=O)NCCCCCCCNc2c3c(nc4ccccc24)CCCC3)c2ccc(Cl)cc2S1(=O)=O (stereo unspecified) | 7.19 | 8.19 |  |  |  | 
13 | CN1c2ccccc2C(NCCCCCCC(=O)O)c2ccc(Cl)cc2S1(=O)=O (stereo unspecified) [TIANEPTINE] |  |  |  | 109.7% |  | 110.8%
14 | CN1c2ccccc2C(NCCCCCCC(=O)NCCCNc2c3c(nc4cc(Cl)ccc24)CCCC3)c2ccc(Cl)cc2S1(=O)=O (stereo unspecified) | 8.17 | 7.28 |  |  |  | 
15 | CN1c2ccccc2C(NCCCCCCC(=O)NCCCCNc2c3c(nc4cc(Cl)ccc24)CCCC3)c2ccc(Cl)cc2S1(=O)=O (stereo unspecified) | 7.44 | 7.32 |  |  |  | 
16 | CN1c2ccccc2C(NCCCCCCC(=O)NCCCCCCCNc2c3c(nc4cc(Cl)ccc24)CCCC3)c2ccc(Cl)cc2S1(=O)=O (stereo unspecified) | 6.88 | 7.27 |  |  |  | 
